In the supplement of paper PMC10307832:

Key:
Assay in all cases: relative viability (nuclei count vs DMSO), 5 days (fraction); higher = more cells survive
201T = tested on: 201T
In short: (§1)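 Cells from lung cancer lines were seeded into 1536-well plates and, one day later, dosed by pin tool. Treatments were either a single drug or a fixed dose of an anchor drug with five library-drug doses (not always all listed) in √10 steps. After 5 days, nuclei were stained in a one-step fixation (final 0.05% Triton X-100, 1% formaldehyde, 1 ug/ml Hoechst) and counted on 4× images, and relative viability is the treated-to-vehicle nuclei ratio, as the median of duplicate plates.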

NCI-H727 = tested on: NCI-H727
In short: as §1

NCI-H1437 = tested on: NCI-H1437
In short: as §1

LCLC-97TM1 = tested on: LCLC-97TM1
In short: as §1

NCI-H647 = tested on: NCI-H647
In short: as §1

NCI-H1944 = tested on: NCI-H1944
In short: as §1

SK-LU-1 = tested on: SK-LU-1
In short: as §1

NCI-H1395 = tested on: NCI-H1395
In short: as §1

NCI-H1793 = tested on: NCI-H1793
In short: as §1

LXF-289 = tested on: LXF-289
In short: as §1

HCC-827 = tested on: HCC-827
In short: as §1

BEN = tested on: BEN
In short: as §1

NCI-H1792 = tested on: NCI-H1792
In short: as §1

RERF-LC-KJ = tested on: RERF-LC-KJ
In short: as §1

NCI-H2228 = tested on: NCI-H2228
In short: as §1

NCI-H2405 = tested on: NCI-H2405
In short: as §1

NCI-H322M = tested on: NCI-H322M
In short: as §1

NCI-H3122 = tested on: NCI-H3122
In short: as §1

CAL-12T = tested on: CAL-12T
In short: as §1

LCLC-103H = tested on: LCLC-103H
In short: as §1

NCI-H1650 = tested on: NCI-H1650
In short: as §1

NCI-H2087 = tested on: NCI-H2087
In short: as §1

Structure (SMILES): CC(=O)O[C@@]12CO[C@@H]1C[C@H](O)[C@@]1(C)C(=O)[C@H](O)C3=C(C)[C@@H](OC(=O)[C@H](O)[C@@H](NC(=O)OC(C)(C)C)c4ccccc4)C[C@@](O)([C@@H](OC(=O)c4ccccc4)[C@H]21)C3(C)C [Docetaxel] + CC(=O)Nc1cccc(-n2c(=O)n(C3CC3)c(=O)c3c(Nc4ccc(I)cc4F)n(C)c(=O)c(C)c32)c1 [Trametinib] (partner 0.02 µM)
- relative viability (201T; first compound 0.0002 µM): 0.7
- relative viability (201T; first compound 0.000632 µM): 0.713
- relative viability (201T; first compound 0.002 µM): 0.644
- relative viability (201T; first compound 0.006325 µM): 0.498
- relative viability (201T; first compound 0.02 µM): 0.366
- relative viability (NCI-H727; first compound 0.0002 µM): 0.398
- relative viability (NCI-H727; first compound 0.000632 µM): 0.379
- relative viability (NCI-H727; first compound 0.002 µM): 0.402
- relative viability (NCI-H727; first compound 0.006325 µM): 0.386
- relative viability (NCI-H727; first compound 0.02 µM): 0.339
- relative viability (NCI-H1437; first compound 0.0002 µM): 0.528
- relative viability (NCI-H1437; first compound 0.000632 µM): 0.501
- relative viability (NCI-H1437; first compound 0.002 µM): 0.264
- relative viability (NCI-H1437; first compound 0.006325 µM): 0.216
- relative viability (LCLC-97TM1; first compound 0.0002 µM): 0.171
- relative viability (LCLC-97TM1; first compound 0.000632 µM): 0.195
- relative viability (LCLC-97TM1; first compound 0.002 µM): 0.148
- relative viability (LCLC-97TM1; first compound 0.006325 µM): 0.108
- relative viability (LCLC-97TM1; first compound 0.02 µM): 0.08
- relative viability (NCI-H647; first compound 0.0002 µM): 0.331
- relative viability (NCI-H647; first compound 0.000632 µM): 0.361
- relative viability (NCI-H647; first compound 0.002 µM): 0.178
- relative viability (NCI-H647; first compound 0.006325 µM): 0.118
- relative viability (NCI-H647; first compound 0.02 µM): 0.0816
- relative viability (NCI-H1944; first compound 0.0002 µM): 0.387
- relative viability (NCI-H1944; first compound 0.000632 µM): 0.371
- relative viability (NCI-H1944; first compound 0.002 µM): 0.294
- relative viability (NCI-H1944; first compound 0.006325 µM): 0.241
- relative viability (NCI-H1944; first compound 0.02 µM): 0.118
- relative viability (SK-LU-1; first compound 0.0002 µM): 0.518
- relative viability (SK-LU-1; first compound 0.000632 µM): 0.468
- relative viability (SK-LU-1; first compound 0.002 µM): 0.411
- relative viability (SK-LU-1; first compound 0.006325 µM): 0.281
- relative viability (SK-LU-1; first compound 0.02 µM): 0.223
- relative viability (NCI-H1395; first compound 0.0002 µM): 1.04
- relative viability (NCI-H1395; first compound 0.000632 µM): 1.06
- relative viability (NCI-H1395; first compound 0.002 µM): 0.907
- relative viability (NCI-H1395; first compound 0.006325 µM): 0.467
- relative viability (NCI-H1395; first compound 0.02 µM): 0.297
- relative viability (NCI-H1793; first compound 0.0002 µM): 0.378
- relative viability (NCI-H1793; first compound 0.000632 µM): 0.433
- relative viability (NCI-H1793; first compound 0.002 µM): 0.384
- relative viability (NCI-H1793; first compound 0.006325 µM): 0.316
- relative viability (NCI-H1793; first compound 0.02 µM): 0.272
- relative viability (LXF-289; first compound 0.0002 µM): 0.648
- relative viability (LXF-289; first compound 0.000632 µM): 0.673
- relative viability (LXF-289; first compound 0.002 µM): 0.335
- relative viability (LXF-289; first compound 0.006325 µM): 0.18
- relative viability (LXF-289; first compound 0.02 µM): 0.109
- relative viability (HCC-827; first compound 0.0002 µM): 0.545
- relative viability (HCC-827; first compound 0.000632 µM): 0.524
- relative viability (HCC-827; first compound 0.002 µM): 0.376
- relative viability (HCC-827; first compound 0.006325 µM): 0.272
- relative viability (HCC-827; first compound 0.02 µM): 0.189
- relative viability (BEN; first compound 0.0002 µM): 1.08
- relative viability (BEN; first compound 0.000632 µM): 1.04
- relative viability (BEN; first compound 0.002 µM): 0.763
- relative viability (BEN; first compound 0.006325 µM): 0.419
- relative viability (BEN; first compound 0.02 µM): 0.322
- relative viability (NCI-H1792; first compound 0.0002 µM): 0.377
- relative viability (NCI-H1792; first compound 0.000632 µM): 0.338
- relative viability (NCI-H1792; first compound 0.002 µM): 0.31
- relative viability (NCI-H1792; first compound 0.006325 µM): 0.142
- relative viability (NCI-H1792; first compound 0.02 µM): 0.0842
- relative viability (RERF-LC-KJ; first compound 0.0002 µM): 0.767
- relative viability (RERF-LC-KJ; first compound 0.000632 µM): 0.816
- relative viability (RERF-LC-KJ; first compound 0.002 µM): 0.39
- relative viability (RERF-LC-KJ; first compound 0.006325 µM): 0.217
- relative viability (RERF-LC-KJ; first compound 0.02 µM): 0.142
- relative viability (NCI-H2228; first compound 0.0002 µM): 0.529
- relative viability (NCI-H2228; first compound 0.000632 µM): 0.233
- relative viability (NCI-H2228; first compound 0.002 µM): 0.202
- relative viability (NCI-H2228; first compound 0.006325 µM): 0.188
- relative viability (NCI-H2228; first compound 0.02 µM): 0.121
- relative viability (NCI-H2405; first compound 0.0002 µM): 0.597
- relative viability (NCI-H2405; first compound 0.000632 µM): 0.618
- relative viability (NCI-H2405; first compound 0.002 µM): 0.531
- relative viability (NCI-H2405; first compound 0.006325 µM): 0.456
- relative viability (NCI-H2405; first compound 0.02 µM): 0.266
- relative viability (NCI-H322M; first compound 0.0002 µM): 0.554
- relative viability (NCI-H322M; first compound 0.000632 µM): 0.507
- relative viability (NCI-H322M; first compound 0.002 µM): 0.441
- relative viability (NCI-H322M; first compound 0.006325 µM): 0.524
- relative viability (NCI-H322M; first compound 0.02 µM): 0.441
- relative viability (NCI-H3122; first compound 0.0002 µM): 0.219
- relative viability (NCI-H3122; first compound 0.000632 µM): 0.215
- relative viability (NCI-H3122; first compound 0.002 µM): 0.194
- relative viability (NCI-H3122; first compound 0.006325 µM): 0.194
- relative viability (NCI-H3122; first compound 0.02 µM): 0.128
- relative viability (CAL-12T; first compound 0.0002 µM): 0.294
- relative viability (CAL-12T; first compound 0.000632 µM): 0.267
- relative viability (CAL-12T; first compound 0.002 µM): 0.229
- relative viability (CAL-12T; first compound 0.006325 µM): 0.15
- relative viability (CAL-12T; first compound 0.02 µM): 0.119
- relative viability (LCLC-103H; first compound 0.0002 µM): 0.675
- relative viability (LCLC-103H; first compound 0.000632 µM): 0.697
- relative viability (LCLC-103H; first compound 0.002 µM): 0.727
- relative viability (LCLC-103H; first compound 0.006325 µM): 0.782
- relative viability (LCLC-103H; first compound 0.02 µM): 0.592
- relative viability (NCI-H1650; first compound 0.0002 µM): 0.392
- relative viability (NCI-H1650; first compound 0.000632 µM): 0.4
- relative viability (NCI-H1650; first compound 0.002 µM): 0.217
- relative viability (NCI-H1650; first compound 0.006325 µM): 0.107
- relative viability (NCI-H2087; first compound 0.0002 µM): 0.159
- relative viability (NCI-H2087; first compound 0.000632 µM): 0.208
- relative viability (NCI-H2087; first compound 0.002 µM): 0.181
- relative viability (NCI-H2087; first compound 0.006325 µM): 0.118
- relative viability (NCI-H2087; first compound 0.02 µM): 0.0893
